# Test results as given in patent US9040261B2, “Compounds as L-cystine crystallization inhibitors and uses thereof” (NEW YORK UNIVERSITY, priority 2009, dated 2015).
# Where a name gives a salt, the structure may show the parent alone. Marks after values point to notes of the source that are not given here.
# Legend:
# [1] = AFM step velocity and hillock imaging with L-cystine diesters under continuous flow; conditions: 0.015 mM inhibitor, 2 mM L-cystine
# Procedure: Atomic force microscopy was performed with a Digital Instruments (Santa Barbara, Calif.) Nanoscope Ma Multimode system. All measurements were performed in a cell designed to contain liquids for in situ imaging, including step velocity measurements. All measurements were performed in contact mode using Veeco NP_B Si3N4 tips on silicon nitride cantilevers with a spring constant of 0.12N/m (triangular, 196 μm length, 41 μm width). L-cystine crystals (hexagonal form) were transferred onto an AFM specimen disk coated with partially cured (1 hr) UV-curable optical cement (Type SK-9, EMS Acquisition Corp.) by gently pressing the disk against hexagonal platelets collected by filtration (Whatman Nuclepore membrane, 8 μm). The (001) faces of the hexagonal plates naturally aligned parallel with the specimen disk such that the velocity of the equivalent {100} steps could be measured readily by AFM. The partially cured polymer with the adhered crystals was cured completely by additional UV radiation (2 hrs) prior to analysis. The mounted L-cystine crystals were etched slightly by immersion in deionized water for 30 sec at 60° C. to remove amorphous deposits or impurities that may be present on the surface. Step velocities on the hexagonal L-cystine crystals were measured by AFM using a fluid cell containing an aqueous solution, supersaturated with L-cystine (2 mM), introduced to the cell via a syringe. Step velocities were determined by measuring the distance of the steps from a reference point, usually the dislocation core, in consecutive deflection images acquired at periodic intervals, ranging from 9-14 sec. Measurements were acquired under continuous flow of fresh solution in order to maintain constant supersaturation and additive concentration. […] The step velocities, which correspond to the crystal growth rates, were measured with and without inhibitor for each pair.
# [2] = Bulk crystallization of L-cystine in the presence of additives (mass yield); conditions: for influence on L-cystine growth: polymers and proteins with proximal carboxylate and amine groups
# Procedure: Alternately, the hexagonal crystals can be obtained by crystallization performed near neutral pH (Sa) The hexagonal form was crystallized from a supersaturated L-cystine solution prepared by adding 70 mg of L-cystine to 100 mL of deionized water (3 mM), and heating under reflux at 100° C. for 20 min with stirring to completely dissolve L-cystine. […] This concentration was used for bulk crystallization studies in the presence of additives so that a measurable amount of bulk crystals could be obtained in a reasonable time. The solution was then allowed to cool slowly with stirring for 75 min. 30 mL aliquots were transferred to separate glass containers, which were then sealed to prevent evaporation and exposure to airborne particulates and stored for 72 hours at room temperature without stirring. […] The crystals retrieved in this manner were used for AFM studies by mounting individual crystals according to the procedure described below.
# Various proteins, poly-amino acids, and molecular mimics of L-cystine were examined as additives. The aforementioned procedure for hexagonal platelet crystallization was repeated. Following the 75 min cooling period, prior to any observable crystallization, the additive was added to the supersaturated L-cystine solution to the desired concentration. […] Crystallization without additive was performed in an identical manner for comparison using a control solution from the same batch. The mass yields of L-cystine crystals were obtained by dividing the mass of L-cystine crystals (collected from growth solution by filtration) by the mass of L-cystine added in the growth solution.
# Additives chosen for these studies were various proteins, poly-amino acids, and molecular mimics of L-cystine (see Table 1). The above procedure for hexagonal platelet crystallization was repeated until completion of the 75 min cooling period, at which point 29.5 g of solution was transferred to a 100 mL beaker containing 0.5 g of separately prepared additive solution to yield net concentrations of 2 mg/L additive and 0.7 g/L L-cystine. Additive solutions were replaced with deionized water of equivalent volume for control measurements. […]
# L-cystine bulk crystallization was investigated in the presence of various polymers, urinary constituents, fish antifreeze proteins (AFPs), and L-cystine derivatives (i.e. structural mimics of L-cystine), which were analyzed as possible growth inhibitors of hexagonal L-cystine. The potency of each additive was assessed by comparing the difference in crystal yield (Table 1), which is equal to the mass of crystals formed in the presence of 2 mg/L additive (isolated with […]) divided by the total mass of L-cystine (700 mg/L).
# [3] = Crystal size and habit by optical microscopy and SEM after bulk crystallization with additive; conditions: for L-cystine crystal habit in the presence of additive: hexagonal platelets without additive
# Procedure: Various proteins, poly-amino acids, and molecular mimics of L-cystine were examined as additives. The aforementioned procedure for hexagonal platelet crystallization was repeated. Following the 75 min cooling period, prior to any observable crystallization, the additive was added to the supersaturated L-cystine solution to the desired concentration. The container was sealed and stored for 72 hours at room temperature without stirring, after which the precipitate was collected by vacuum filtration (Whatman Grade 1 filters, >11 μm pores) and were air dried prior to analysis. Crystallization without additive was performed in an identical manner for comparison using a control solution from the same batch. The mass yields of L-cystine crystals were obtained by dividing the mass of L-cystine crystals (collected from growth solution by filtration) by the mass of L-cystine added in the growth solution. The crystals were isolated with 11 μm-pore filters, which were regarded as sufficiently small for reliable capture of the crystals (optical micrographs reveal that the size of crystals was always greater than 50 μm
# An Orion 3 Star pH meter (Thermo Electron Corp.) with Orion 9157BNMD probe was used to measure the pH of L-cystine solutions. Crystal morphology was measured with a Leitz ERGOLUZ optical microscope and a Hitachi 3500 scanning electron microscopy. A thin coating of gold (2 nm) was sputtered on SEM samples and images were acquired at low voltage (2-5 kV) to minimize sample melting. ^1H NMR spectra were recorded using a Bruker AVANCE 400 spectrometer and were routinely run using broadband decoupling. Chemical shifts (δ), expressed in ppm, are referenced to the corresponding residual nuclei in deuterated solvent (D2O). Powder X-ray diffraction (XRD) patterns of isolated crystals were acquired with a Panalytical XPert PRO MPD using a Bragg-Brentano geometry with fixed slits at power settings of 45 kV and 40 mA. A CuKa radiation (0.154 nm) source was used with a 1 degree fixed divergence slit (10 mm beam mask) for incident X-rays and a 1 degree anti-scatter slit Ni filter ( 1/16 degree receiving slit) for diffracted X-rays.
# [4] = 2 mg/L additive, 0.7 g/L L-cystine (pH 6.8), no additive 80, approximate error ±8%
# [5] = 10 mg/L L-cysteine methylester, 700 mg/L L-cystine
compound,measurement,setting,value
"CC(C)(C)OC(=O)[C@@H](N)CSSC[C@H](N)C(=O)OC(C)(C)C [L-CDTE, Cystine Di-t-Butyl Ester]","order of step roughening, corresponding to the trend in inhibition",[1],L-CDME>L-CDEE>L-CDIE>L-CDTE
"Osteopontin (bovine): Osteopontin, extracted and purified from bovine milk, contains 7 wt % Ca2+ ions","Yield (%) = (collected mass by filtration, >11 μm)/(total mass added) × 100%",[2]; [4],52%
same,influence on L-cystine growth,[2]; Table 1,negligible influence
Desialylated Tamm-Horsfall protein: native THP desialylated by treatment with neuraminidase (50% reduction of carbohydrate content),"Yield (%) = (collected mass by filtration, >11 μm)/(total mass added) × 100%",[2]; [4],41%
"Transferrin: apo-transferrin (human, >98%)","Yield (%) = (collected mass by filtration, >11 μm)/(total mass added) × 100%",[2]; [4],56%
Poly-L-glutamate [reference compound],"Yield (%) = (collected mass by filtration, >11 μm)/(total mass added) × 100%",[2]; [4],56%
same,influence on L-cystine growth,[2]; Table 1,negligible influence
"CC(C)(C)SSC[C@H](N)C(=O)O [S-tert-butylmercapto-L-cystine, 5-tert-butylmercapto-L-cysteine, reference compound]","Yield (%) = (collected mass by filtration, >11 μm)/(total mass added) × 100%",[2]; [4],45%
Poly-L-arginine [reference compound],"Yield (%) = (collected mass by filtration, >11 μm)/(total mass added) × 100%",[2]; [4],34%
Poly-L-aspartate [reference compound],"Yield (%) = (collected mass by filtration, >11 μm)/(total mass added) × 100%",[2]; [4],44%
"CC(C)(SSC(C)(C)[C@@H](N)C(=O)O)[C@H](N)C(=O)O [D-penicillamine disulfide, reference compound]","Yield (%) = (collected mass by filtration, >11 μm)/(total mass added) × 100%",[2]; [4],65%
"O=C(O)CCSSCCC(=O)O [3,3′-Dithiodiproprionic acid, 3,3′-dithiodipropionic acid, reference compound]","Yield (%) = (collected mass by filtration, >11 μm)/(total mass added) × 100%",[2]; [4],72%
"O=C(O)CC(O)(CC(=O)O)C(=O)O [Citrate, sodium citrate (dihydrate), reference compound]","Yield (%) = (collected mass by filtration, >11 μm)/(total mass added) × 100%",[2]; pH 6.8,74%
Poly-L-lysine [reference compound],"Yield (%) = (collected mass by filtration, >11 μm)/(total mass added) × 100%",[2]; [4],64%
same,influence on L-cystine growth,[2]; Table 1,negligible influence
"CCOC(=O)[C@@H](N)CSSC[C@H](N)C(=O)OCC [L-CDEE, Cystine Diethyl Ester]","order of step roughening, corresponding to the trend in inhibition",[1],L-CDME>L-CDEE>L-CDIE>L-CDTE
"COC(=O)[C@@H](N)CSSC[C@H](N)C(=O)O [CME, L-Cystine Methyl Ester]","Yield (%) = (collected mass by filtration, >11 μm)/(total mass added) × 100%",[2]; [4],92* %
same,CME concentration needed for crystal growth inhibition similar to CDME,[2]; bulk crystallization,more than twice that of CDME
same,needle volume less than hexagonal platelets,[3],~100 times
same,L-cystine crystal habit in the presence of additive,[3],tapered hexagonal crystals
"N[C@@H](CS)C(=O)O [L-cysteine, reference compound]","Yield (%) = (collected mass by filtration, >11 μm)/(total mass added) × 100%","[2]; 10 mg/L additive, 0.7 g/L L-cystine, no additive 80±8%",91%
same,influence on mass yield,"[2]; bulk crystallization, Table 1",did not influence the yield
same,L-cystine crystal habit in the presence of additive,[3],Hexagonal L-cystine platelets
"COC(=O)[C@@H](N)CS.Cl [L-cysteine methyl ester, L-cysteine methyl ester hydrochloride, reference compound]","Yield (%) = (collected mass by filtration, >11 μm)/(total mass added) × 100%","[2]; 10 mg/L additive, 0.7 g/L L-cystine, no additive 80±8%, hydrochloride",32%
same,needle length,[3]; [5],< 50 μm
same,needle width,[3]; [5],< 5 μm
same,L-cystine crystal habit in the presence of additive,[3],needles
"CC(C)OC(=O)[C@@H](N)CSSC[C@H](N)C(=O)OC(C)C [L-CDIE, L-Cystine Di-Isopropyl Ester]","order of step roughening, corresponding to the trend in inhibition",[1],L-CDME>L-CDEE>L-CDIE>L-CDTE
Chondroitin sulfate,"Yield (%) = (collected mass by filtration, >11 μm)/(total mass added) × 100%",[2]; [4],64%
Tamm-Horsfall protein: Tamm-Horsfall protein obtained from a human sample with no history of kidney stone disease,"Yield (%) = (collected mass by filtration, >11 μm)/(total mass added) × 100%",[2]; [4],69%
same,influence on L-cystine growth,[2]; Table 1,negligible influence
